Laboratory results from paper PMC8459327, “Identification of molecular glues of the SLP76/14-3-3 protein–protein interaction” (RSC Medicinal Chemistry, 2021).
“Also recorded” adds a separate entry of the source. Like-named read-outs stand apart in the source and are kept apart here.

T1: 14-3-3γ (Homo sapiens, UniProt P61981)
T1 sequence (P61981 1-247): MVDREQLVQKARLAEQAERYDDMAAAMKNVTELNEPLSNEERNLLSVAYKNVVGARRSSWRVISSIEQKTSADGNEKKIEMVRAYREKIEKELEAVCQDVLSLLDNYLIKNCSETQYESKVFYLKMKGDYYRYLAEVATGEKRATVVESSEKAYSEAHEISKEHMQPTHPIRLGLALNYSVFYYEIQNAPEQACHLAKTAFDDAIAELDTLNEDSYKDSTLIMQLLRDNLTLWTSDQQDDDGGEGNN

B1: SLP76-SH2: 20 KDa phosphorylated SLP76 protein construct (pSer376), binding partner of 14-3-3γ (protein)
chain: MPGAFSESNSSFPQSASLPPYFSQGPSNRPPIRAEGRNFPLPLPNKPRPPSPAEEENSLNEEWYVSYITRPEAEAALRKINQDGTFLVRDSSKKTTTNPYVLMVLYKDKVYNIQIRYQKESQVYLLGTGLRGKEDFLSVSDIIDYFRKMPLLLIDGKNRGSRYQCTLTHAAGYP
modifications: phospho-Ser376 (in vitro by HPK1); His6-SUMO tag cleaved; AF647 amine-labelled in HTRF; the segment is inferred to span Ser376 and the C-terminal SH2 domain to t

Columns and labels:
14-3-3γ/SLP76 [1] = molecular target: T2, 14-3-3γ/SLP76 (Homo sapiens, UniProt P61981+Q13094); assay: Orthogonal SPR assay, compound flowed with SLP76 over immobilised 14-3-3γ; assay type: binding; set-up: key to SPR RU (%) mass increase 14-3-3γ/SLP76: Ns: no stabilisation observed in SPR; settings: for Stabilisation in SPR (in words): off-rate / mass on chip versus runs without compound; for SPR RU (%) mass increase 14-3-3γ/SLP76: percentage of SLP76 remained on the chip after the dissociation phase (+240 s)
Experimental: Of the 16 hit compounds 13 were tested in an orthogonal SPR assay in which each compound was flowed with SLP76 over 14-3-3γ immobilised on the chip. Runs at different concentrations of compound were compared to the runs in absence of compound. […] The effect of the compounds on 14-3-3γ/SLP76 was measured by calculating the percentage of SLP76 remained on the chip after the dissociation phase and immediately before: RU (%) = RU 5 s before dissociation/RU +240 s after dissociation. Dose–response curves were extrapolated from those sensorgrams plotting the RU (%) mass increase over the increase in compound concentrations.
SPR experiments were performed on a Biacore T200 (Cytiva). The Sensor Chip NTA was validated as previously reported by Soini et al.[63] A DMSO tolerance at 2% and 5% was performed in the same way (Fig. S1 ^†).
For compounds testing, the compounds were preincubated with SLP76, in final DMSO concentration of 5%. The compounds were tested at a single concentration of 100 μM and at multiple concentrations following a 3-fold dilution from a top concentration of 100 μM with SLP76 at the saturation concentration of 250 nM. A second set of experiments were performed at multiple concentrations of compound following a 3-fold dilution from a top concentration of 200 μM with SLP76 around the KD concentration of 40 nM. The SLP76/compound mixtures were flowed over the immobilised 14-3-3γ at 30 μL min^−1 for 180 s before allowing dissociation for 5 minutes. After every cycle, the chip was washed with EDTA and Ni^2+ and 14-3-3γ reinjected for the next cycle. The compound effects were measured by calculating the percentage of SLP76 remained on the chip after the dissociation phase and right before: RU (%) = RU 5 s before dissociation/RU +240 s after dissociation. RU response points relative to +240 s after dissociation were also plotted and an apparent EC50 was estimated. The data were fitted with a “One site – specific” model on GraphPad Prism version 8.1.1 for Windows, GraphPad Software, La Jolla California USA, www.graphpad.com.

14-3-3ζ/p27 = 14-3-3ζ/p27 (Homo sapiens, UniProt P46527+P63104); assay: HTRF dose-response assay on 14-3-3ζ/p27; assay type: binding; settings: for EC50: stabilisation, same FRET pair, EC50 estimated from fit, read-out: HTRF EC50 14-3-3ζ/p27
Experimental: (§1) 384 logistic plates were prefilled with 40 μL of compounds at 10 mM, 100% DMSO in column 3. Columns 1, 2 and 4 to 22 were filled with 20 μL of 100% DMSO with a Multidrop Dispenser (ThermoScientific). 2-Fold dilutions of the compounds were carried over from column 3 to 22, with a CyBio FeliX liquid handler (analytikjena). 2 μL of R18 peptide at 20 μM was added to columns 23 and 24 of the Corning 384-well 3574 final assay plates with a Multidrop Dispenser (ThermoScientific). 40 μL of protein mixture, containing Tb labelled 14-3-3γ at 1 nM and AF647 labelled SLP76 at 600 nM in assay buffer (50 mM Tris pH 7.5, 150 mM NaCl, 5 mM MgCl2, 0.05% v/v Tween-20) were added with a Multidrop Dispenser (ThermoScientific) into the Corning 384-well 3574 final assay plates. 2 μL of compounds along with the DMSO control were then transferred with a CyBio FeliX liquid handler (analytikjena) from the 384 logistic plates to the final Corning 384-well 3574 assay plates. […] The dose–response on the first 64 compounds was performed in singlet from a 500 μM top concentration. The repetition on the best 16 compounds was performed in duplicates from a 250 μM top concentration. A dose–response assay on an unrelated 14-3-3ζ/p27 HTRF protein pair was performed as described above. Incubation, data acquisition and normalisation were performed as described above. For EC50 estimation, the data were fitted with a “log(agonist) vs. response (three parameters)” model on GraphPad Prism version 8.1.1 for Windows, GraphPad Software, La Jolla California USA, www.graphpad.com. In the case of duplicates, each data point is the average of a duplicate measurement, standard deviation is reported as error bars.

14-3-3γ/SLP76 [2] = molecular target: T2, 14-3-3γ/SLP76; assay: HTRF dose-ratio assay (SLP76 titration at fixed compound concentrations); assay type: binding
Experimental: Each protein titration was performed in the presence of a fixed concentration of compound. […] Proteins and R18 peptide were diluted from their stock concentration in assay buffer (50 mM Tris pH 7.5, 150 mM NaCl, 5 mM MgCl2, 0.05% v/v Tween-20). Incubation and data acquisition were performed as described above. […] For data analysis the background FRET signal generated by the titration in the presence of R18 10 μM was removed from all values. KD values for each curve were estimated and comparison with the different concentration of compounds were made. The data were fitted with a “One site – specific” model on GraphPad Prism version 8.1.1 for Windows, GraphPad Software, La Jolla California USA, www.graphpad.com. Each data point is the average of a duplicate measurement, standard deviation is reported as error bars.

14-3-3γ/SLP76 [3] = molecular target: T2, 14-3-3γ/SLP76; assay: HTRF dose-response assay on 14-3-3γ/SLP76; assay type: binding; settings: stabilisation; 14-3-3γ-Tb 1 nM, SLP76-AF647 600 nM, 5% DMSO; EC50 estimated from fit; read-out: HTRF EC50 14-3-3γ/SLP76
Experimental: 384-Well logistic plates were prefilled with 2 μL of compounds at 2 mM, 100% DMSO, except for columns 1, 2, 23 and 24. Columns 1, 2 were filled with 2 μL of DMSO while columns 23, 24 were filled with 2 μL of the 14-3-3 inhibitor R18 at 20 μM using a Multidrop Dispenser (ThermoScientific). Next, 40 μL of protein mixture containing Tb-labelled 14-3-3γ at 1 nM and AF647 labelled SLP76 at 600 nM in assay buffer (50 mM Tris pH 7.5, 150 mM NaCl, 5 mM MgCl2, 0.05% v/v Tween-20) were added using a Multidrop Dispenser (ThermoScientific). […] To perform the assay, 30 μL volumes were then transferred using a Biomek FX^P Automated Workstation (Beckman Coulter) into Corning 384-well 3574 assay plates. The plates were incubated at room temperature with gentle shaking for 4 h. Finally, the data were collected on a PHERAstar FSX plate reader (BMG Labtech) with an λex 337 nm, λem 665 nm and 620 nm HTRF filter setting. The data were exported in IDBS ActivityBase (IDBS) where they were normalised setting the R18 negative control as 100% inhibition and the DMSO control as 0%. Negative percentage values were therefore associated with a stabilisation of the 14-3-3γ/SLP76 interaction. The threshold of −20% inhibition (or 20% stabilisation) was chosen to select the hits to follow up. The selected hits were retested on 14-3-3γ/SLP76 and were also tested against an unrelated protein pair (IL-17/receptor) in a similar assay setup. […] All the assays were performed as described above.
as §1

14-3-3γ [4] = molecular target: T1, 14-3-3γ; assay: SPR binding assay of the SLP76-SH2 construct to 14-3-3γ; settings: in the presence of 5% DMSO, extrapolated from binding curve
Excerpt: Fig. 1 Assay set-up for the 14-3-3γ/SLP76 PPI. a) SPR binding assay of the SLP76-SH2 construct binding to 14-3-3γ in the presence of 5% DMSO. The KD value has been extrapolated from the binding curve reported on the right of the sensorgrams. b) HTRF assay set-up. The two proteins of interest, SLP76 and 14-3-3γ have been labelled with […], to generate a suitable matched pair of donor molecule (Tb) and acceptor molecule (AF647). The donor molecule, Tb labelled 14-3-3, is excited at the proper wavelength of 337 nm. When the acceptor is not in the proximity (no binding) no signal is detected. When SLP76 bound to 14-3-3 brings the acceptor molecule AF647 close to the donor, energy transfer occurs between the fluorophores pair. A radiation with the wavelength of 665 nm is consequently emitted to generate a read-out (665/620 nm). All HTRF protein systems used in this work are reported in the legend.
SPR experiments were performed on a Biacore T200 (Cytiva). The Sensor Chip NTA was validated as previously reported by Soini et al.[63] A DMSO tolerance at 2% and 5% was performed in the same way (Fig. S1 ^†). […]
confirming a DMSO tolerance of the 14-3-3γ/SLP76-SH2 system in an SPR context. A KD value calculated by […]

14-3-3γ [5] = molecular target: T1, 14-3-3γ; set-up: method as in Soini et al.; settings: SPR, in absence of DMSO; ref Soini et al.; read-out: KD of SLP76-SH2 binding to 14-3-3γ; cited from earlier work

Chain of 14-3-3ζ/p27 (P63104 whole entry): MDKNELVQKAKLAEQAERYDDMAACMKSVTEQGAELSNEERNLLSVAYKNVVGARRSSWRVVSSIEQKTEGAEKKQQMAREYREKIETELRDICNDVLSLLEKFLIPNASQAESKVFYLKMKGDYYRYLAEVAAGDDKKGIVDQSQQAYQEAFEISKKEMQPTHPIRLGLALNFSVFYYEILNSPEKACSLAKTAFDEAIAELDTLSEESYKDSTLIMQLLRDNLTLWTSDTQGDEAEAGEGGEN
Chain of 14-3-3ζ/p27 (P46527 whole entry): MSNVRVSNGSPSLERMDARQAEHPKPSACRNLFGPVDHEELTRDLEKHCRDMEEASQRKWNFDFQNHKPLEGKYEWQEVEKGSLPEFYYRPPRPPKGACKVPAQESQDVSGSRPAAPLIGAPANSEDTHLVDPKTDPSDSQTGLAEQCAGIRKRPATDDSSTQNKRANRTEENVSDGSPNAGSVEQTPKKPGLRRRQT
T2 sequence (Q13094 356-533, one chain of several): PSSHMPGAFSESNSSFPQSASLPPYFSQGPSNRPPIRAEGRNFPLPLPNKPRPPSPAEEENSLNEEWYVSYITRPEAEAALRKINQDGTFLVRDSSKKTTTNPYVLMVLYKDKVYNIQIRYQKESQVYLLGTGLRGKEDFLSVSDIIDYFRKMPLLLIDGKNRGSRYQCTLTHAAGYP

Molecule | Stabilisation in SPR (in words) (14-3-3γ/SLP76 [1]) | SPR RU (%) mass increase 14-3-3γ/SLP76 (14-3-3γ/SLP76 [1]) | Selectivity between 14-3-3γ/SLP76 and 14-3-3ζ/p27 (in words) (14-3-3ζ/p27; comparison of HTRF dose-responses) | EC50 (14-3-3ζ/p27) [µM] | KD improvement in the SLP76 HTRF assay (14-3-3γ/SLP76 [2]) | EC50 (14-3-3γ/SLP76 [3]) [µM] | Stabilisation of 14-3-3ζ/p27 in HTRF (in words) (14-3-3ζ/p27) | Kd (14-3-3γ [4]) [µM] | Kd (14-3-3γ [5]) [µM]
COc1ccc(C(=O)N2C[C@@H]3CN(CCO3)C(=O)[C@@H]3C[C@@H](CN3Cc3cccnc3)NC(=O)C[C@@H]3O[C@H](C2)[C@@H](O)[C@H]3O)cc1 [Compound 3, (3S,6S,10S,11R,12S,13R,17R)-11,12-dihydroxy-15-(4-methoxybenzoyl)-4-(pyridin-3-ylmethyl)-18,22-dioxa-1,4,7,15-tetrazatetracyclo[15.3.1.13,6.110,13]tricosane-2,8-dione] | orthogonally confirmed by SPR; also recorded: orthogonally confirmed in the SPR assay | 66.9% | selective for the 14-3-3γ/SLP76 system | > 250 | 10 fold | 14.4 ± 1.9 |  |  | 
c1cc(-c2nnc3scnn23)ccn1 [Compound 7, 3-pyridin-4-yl-[1,2,4]triazolo[3,4-b][1,3,4]thiadiazole] | orthogonally confirmed by SPR; also recorded: strong concentration dependence in off-rate | 57.7% |  | > 250 | fourfold | 5.3 ± 1.9 | no measurable modulation |  | 
O=C(Cn1nc(C(F)(F)F)c2c1CCCC2)Nc1ccc(Cl)c(Cl)c1 [Compound 14, N-(3,4-dichlorophenyl)-2-[3-(trifluoromethyl)-4,5,6,7-tetrahydroindazol-1-yl]acetamide] | not confirmed in the SPR assay | Ns ^d |  | 12.6 ± 14.4 |  | 21.2 ± 11.3 |  |  | 
B1 |  |  |  |  |  |  |  | 0.0279 ± 0.0015 | 0.043
